Assays:
[1] = molecular target: human recombinant PLK4 (Homo sapiens (Human), UniProt O00444); assay: PLK4 Biochemical Assay (ADP-Glo); conditions: 0.5 nM PLK4, 8.0 µM ATP, 4.7 µM MBP, 6 hours at RT
Method in brief: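 Luminescent ADP-Glo detection quantified ADP production, with ATP depletion for 40 min and detection for 30 min at room temperature. Compound and PLK4 (1.0 nM stock addition) were preincubated 15 min in HEPES pH 7.5 buffer containing MgCl2, EGTA, DTT, Brij-35 and BSA. IC50 values were obtained by four-parameter nonlinear regression.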

[2] = system: CHP-134 cells; assay: CHP134 CellTiter-Glo (CTG) Assay; format: cell-based; conditions: Homo sapiens, CHP-134, 120 h, 5 days, viable cells by CellTiter-Glo
Procedure: Cells were seeded (200 cells/well) in 384-well plates for 16 hours. On day two, nine serial 1:3 compound dilutions were made in DMSO in a 96-well plate. The compounds were then further diluted into growth media using a BRAVO robot (Agilent, Santa Clara, CA). The diluted compounds were then added to quadruplicate wells in the 384-well cell plate and incubated at 37° C. and 5% CO2. After 5 days, relative numbers of viable cells were measured by luminescence using CellTiter-Glo® (Promega) according to the manufacturer’s instructions and read on a SPARK Multimode Microplate Reader (Tecan, Mannedorf Switzerland). The IC50 calculations for the values reported in Table 2 were carried out using Prism 6.0 software (GraphPad, San Diego).

[3] = molecular target: human recombinant Aurora A (Homo sapiens (Human), UniProt O14965); assay: Aurora A Kinase Biochemical Assay (ADP-Glo); conditions: ratio of Aurora A IC50 to PLK4 IC50 (selectivity)
human recombinant Aurora A, sequence (O14965 whole entry): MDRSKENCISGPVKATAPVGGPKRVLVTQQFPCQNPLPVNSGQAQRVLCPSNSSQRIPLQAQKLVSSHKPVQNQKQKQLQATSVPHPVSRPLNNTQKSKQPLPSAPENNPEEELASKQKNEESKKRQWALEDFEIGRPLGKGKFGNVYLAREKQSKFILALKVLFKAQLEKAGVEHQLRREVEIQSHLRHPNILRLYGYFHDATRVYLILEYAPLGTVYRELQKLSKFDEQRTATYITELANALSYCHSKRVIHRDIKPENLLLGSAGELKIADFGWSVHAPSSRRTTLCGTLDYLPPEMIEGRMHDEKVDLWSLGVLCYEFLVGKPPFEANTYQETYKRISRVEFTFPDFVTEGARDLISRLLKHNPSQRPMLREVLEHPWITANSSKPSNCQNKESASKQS

[4] = molecular target: human recombinant Aurora B (Homo sapiens (Human), UniProt Q96GD4); assay: Aurora B Kinase Biochemical Assay (ADP-Glo); conditions: ratio of Aurora B IC50 to PLK4 IC50 (selectivity)
human recombinant Aurora B, sequence (Q96GD4 whole entry): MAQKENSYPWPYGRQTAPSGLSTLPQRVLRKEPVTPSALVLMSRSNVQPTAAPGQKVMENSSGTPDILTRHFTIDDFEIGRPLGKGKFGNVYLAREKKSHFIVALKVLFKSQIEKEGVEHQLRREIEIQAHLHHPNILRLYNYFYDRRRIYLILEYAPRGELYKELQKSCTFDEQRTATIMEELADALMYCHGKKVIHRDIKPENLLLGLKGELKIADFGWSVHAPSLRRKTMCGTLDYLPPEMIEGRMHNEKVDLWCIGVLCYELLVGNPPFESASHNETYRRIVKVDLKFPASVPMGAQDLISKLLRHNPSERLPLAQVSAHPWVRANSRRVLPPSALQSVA
Method in brief: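 IC50 derived by four-parameter nonlinear fit of ADP-Glo luminescence (ADP produced). Compound was preincubated 15 min at RT with 20 nM recombinant human Aurora B, in 50 mM HEPES pH 7.5, 10 mM MgCl2, 1 mM EGTA, 1 mM DTT, 0.01% Brij-35/BSA.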

human recombinant PLK4, sequence (O00444 whole entry): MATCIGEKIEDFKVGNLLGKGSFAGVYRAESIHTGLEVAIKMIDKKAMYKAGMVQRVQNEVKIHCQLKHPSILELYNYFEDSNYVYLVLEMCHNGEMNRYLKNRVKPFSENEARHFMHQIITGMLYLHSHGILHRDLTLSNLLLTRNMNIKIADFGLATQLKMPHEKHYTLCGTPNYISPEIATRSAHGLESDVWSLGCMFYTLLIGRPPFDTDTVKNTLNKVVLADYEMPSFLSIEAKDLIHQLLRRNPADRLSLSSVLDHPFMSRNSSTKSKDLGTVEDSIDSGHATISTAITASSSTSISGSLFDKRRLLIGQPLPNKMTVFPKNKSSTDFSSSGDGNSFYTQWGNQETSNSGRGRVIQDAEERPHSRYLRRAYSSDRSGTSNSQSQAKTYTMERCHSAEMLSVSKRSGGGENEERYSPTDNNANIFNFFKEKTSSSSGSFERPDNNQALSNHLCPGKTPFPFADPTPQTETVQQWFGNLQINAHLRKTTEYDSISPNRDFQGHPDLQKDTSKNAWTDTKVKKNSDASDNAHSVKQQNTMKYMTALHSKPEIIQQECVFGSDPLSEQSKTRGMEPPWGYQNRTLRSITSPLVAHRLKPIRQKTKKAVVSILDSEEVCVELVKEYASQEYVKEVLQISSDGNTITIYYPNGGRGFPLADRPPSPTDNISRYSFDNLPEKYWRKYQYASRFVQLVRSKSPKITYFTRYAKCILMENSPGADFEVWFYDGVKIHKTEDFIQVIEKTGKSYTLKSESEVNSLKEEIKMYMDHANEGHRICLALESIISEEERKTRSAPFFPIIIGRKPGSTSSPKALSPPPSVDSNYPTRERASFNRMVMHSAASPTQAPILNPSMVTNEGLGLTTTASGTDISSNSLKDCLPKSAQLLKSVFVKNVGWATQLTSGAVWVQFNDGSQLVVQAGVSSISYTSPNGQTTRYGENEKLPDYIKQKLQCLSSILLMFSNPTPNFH

| Structure (SMILES) | IC50 [1] | IC50 [2] | [Aurora A IC50 (nM)]/[PLK4 IC50 (nM)] [3] | [Aurora B IC50 (nM)]/[PLK4 IC50 (nM)] [4] |
| --- | --- | --- | --- | --- |
| CNS(=O)(=O)c1cc(OC)c(Nc2n[nH]c3cc([C@@H]4C[C@@]45C(=O)Nc4ccc(OC)cc45)ccc23)cc1C [Example 210, 5-methoxy-4-({6-[(1R,2S)-5′-methoxy-2′-oxo-1′,2′-dihydrospiro[cyclopropane-1,3′-indol]-2-yl]-1H-indazol-3-yl}amino)-N,2-dimethylbenzene-1-sulfonamide] | 1.35 nM | 65.5 nM | 462.3887 | 316.5430 |
| COc1ccc2c(c1)[C@]1(C[C@H]1c1ccc3c(Nc4nc(CCO)nc(N5CCOCC5)c4OC)n[nH]c3c1)C(=O)N2 [Example 68, (1R,2S)-2-(3-{[2-(2-hydroxyethyl)-5-methoxy-6-(morpholin-4-yl)pyrimidin-4-yl]amino}-1H-indazol-6-yl)-5′-methoxyspiro[cyclopropane-1,3′-indol]-2′(1′H)-one] | 7.38 nM | 2480 nM | 4761.518 | 1347.967 |
| COc1cnc(C)nc1Nc1n[nH]c2cc([C@@H]3C[C@@]34C(=O)Nc3ccc(F)cc34)ccc12 [Example 133, (1R,2S)-5′-fluoro-2-{3-[(5-methoxy-2-methylpyrimidin-4-yl)amino]-1H-indazol-6-yl}spiro[cyclopropane-1,3′-indol]-2′(1′H)-one] | 8.32 nM | 193 nM | 43.3910 | 45.1453 |
| COc1ccc2c(c1)[C@]1(C[C@H]1c1ccc3c(Nc4ncc(C5CS(=O)(=O)C5)nc4OC)n[nH]c3c1)C(=O)N2 [Example 254, 3-[6-methoxy-5-({6-[(1R,2S)-5′-methoxy-2′-oxo-1′,2′-dihydrospiro[cyclopropane-1,3′-indol]-2-yl]-1H-indazol-3-yl}amino)pyrazin-2-yl]-1λ6-thietane-1,1-dione] | 5.19 nM | 2160 nM | 297.6878 | 96.18 |
| COc1ccc2c(c1)[C@]1(C[C@H]1c1ccc3c(Nc4nc(N5CC6(COC6)C5)ncc4OC)n[nH]c3c1)C(=O)N2 [Example 192, (1R,2S)-5′-methoxy-2-(3-{[5-methoxy-2-(2-oxa-6-azaspiro[3.3]heptan-6-yl)pyrimidin-4-yl]amino}-1H-indazol-6-yl)spiro[cyclopropane-1,3′-indol]-2′(1′H)-one] | 1.64 nM | 1180 nM | 2835.2654 | 678.4625 |
| COc1ccc2c(c1)[C@]1(C[C@H]1c1ccc3c(Nc4nc(N5CCOCC5)cnc4OC)n[nH]c3c1)C(=O)N2 [Example 99, (1R,2S)-5′-methoxy-2-(3-{[3-methoxy-6-(morpholin-4-yl)pyrazin-2-yl]amino)-1H-indazol-6-yl)spiro[cyclopropane-1,3′-indol]-2′(1′H)-one] | 5.8 nM | 565 nM | 155.05 | 129.9724 |
| COc1ccc2c(c1)[C@]1(C[C@H]1c1ccc3c(Nc4nc(C5CC5)ncc4Cl)n[nH]c3c1)C(=O)N2 [Example 116, (1R,2S)-2-(3-((5-chloro-2-cyclopropylpyrimidin-4-yl)amino)-1H-indazol-6-yl)-5′-methoxyspiro[cyclopropane-1,3′-indolin]-2′-one] | 2.89 nM | 134 nM | 788.5813 | 483.7370 |
| COc1ccc2c(c1)[C@]1(C[C@H]1c1ccc3c(Nc4ncc(S(=O)(=O)N(C)C)cc4OC)n[nH]c3c1)C(=O)N2 [Example 204, 5-methoxy-6-({6-[(1R,2S)-5′-methoxy-2′-oxo-1’,2′-dihydrospiro[cyclopropane-1,3′-indol]-2-yl]-1H-indazol-3-yl}amino)-N,N-dimethylpyridine-3-sulfonamide] | 0.81 nM | 122 nM | 342.9630 | 222.8395 |
| COc1ccc2c(c1)[C@]1(C[C@H]1c1ccc3c(Nc4ncc(C(=O)N5CCOCC5)cc4OC)n[nH]c3c1)C(=O)N2 [Example 264, (1R,2S)-5′-methoxy-2-(3-{[3-methoxy-5-(morpholine-4-carbonyl)pyridin-2-yl]amino}-1H-indazol-6-yl)spiro[cyclopropane-1,3′-indol]-2′(1′H)-one] | 0.785 nM | 860 nM | 307.8980 | 66.6751 |
| COc1ccc2c(c1)[C@]1(C[C@H]1c1ccc3c(Nc4cc(S(=O)(=O)N(C)C)ccc4OC)n[nH]c3c1)C(=O)N2 [Example 179, 4-methoxy-3-({6-[(1R,2S)-5′-methoxy-2′-oxo-1′,2′-dihydrospiro[cyclopropane-1,3′-indol]-2-yl]-1H-indazol-3-yl}amino)-N,N-dimethylbenzene-1-sulfonamide] | 3.81 nM | 948 nM | 13119.9160 | 5384.4135 |
| COc1ccc2c(c1)[C@]1(C[C@H]1c1ccc3c(Nc4nc(C5CCOCC5)ncc4OC)n[nH]c3c1)C(=O)N2 [Example 154, (1R,2S)-5′-methoxy-2-(3-{[5-methoxy-2-(oxan-4-yl)pyrimidin-4-yl]amino}-1H-indazol-6-yl)spiro[cyclopropane-1,3′-indol]-2′(1′H)-one] | 0.976 nM | 260 nM | 1373.9754 | 655.2254 |
| COc1ccc2c(c1)[C@]1(C[C@H]1c1ccc3c(Nc4ccc5c(c4OC)CN(C)C5=O)n[nH]c3c1)C(=O)N2 [Example 266, (1R,2S)-5′-methoxy-2-{3-[(4-methoxy-2-methyl-1-oxo-2,3-dihydro-1H-isoindol-5-yl)amino]-1H-indazol-6-yl}spiro[cyclopropane-1,3′-indol]-2′(1′H)-one] | 2.34 nM | 792 nM | 723.9761 | 154.9914 |
| COc1ccc2c(c1)[C@]1(C[C@H]1c1ccc3c(Nc4nc(C(C)C)nc(N5CCS(=O)(=O)CC5)c4Cl)n[nH]c3c1)C(=O)N2 [Example 78, (1R,2S)-2-(3-((5-chloro-6-(1,1-dioxidothiomorpholino)-2-isopropylpyrimidin4-yl)amino)-1H-indazol-6-yl)-5′-methoxyspiro[cyclopropane-1,3′-indolin]-2′-one] | 0.35 nM | 61.4 nM | 5660 | 1778.857 |
| COc1ccc2c(c1)[C@]1(C[C@H]1c1ccc3c(Nc4nc(C)nc(N5CC(O)C5)c4Cl)n[nH]c3c1)C(=O)N2 [Example 72, (1R,2S)-2-(3-{[5-chloro-6-(3-hydroxyazetidin-1-yl)-2-methylpyrimidin-4-yl]amino)-1H-indazol-6-yl)-5′-methoxyspiro[cyclopropane-1,3′-indol]-2′(1′H)-one] | 0.997 nM | 42.7 nM | 2006.018 | 405.2156 |
| CCOc1cc(S(C)(=O)=O)ccc1Nc1n[nH]c2cc([C@@H]3C[C@@]34C(=O)Nc3ccc(OC)cc34)ccc12 [Example 272, (1R,2S)-2-{3-[2-Ethoxy-4-(methanesulfonyl)anilino]-1H-indazol-6-yl}-5′-methoxyspiro[cyclopropane-1,3′-indol]-2′(1′H)-one] | 0.833 nM | 77.8 nM | 3273.7094 | 448.8595 |
| COc1ccc2c(c1)[C@]1(C[C@H]1c1ccc3c(Nc4nc(N5CC[C@@H](F)C5)ncc4OC)n[nH]c3c1)C(=O)N2 [Example 169] | 0.995 nM | 188 nM | 666.9347 | 431.4573 |
| COc1ccc2c(c1)[C@]1(C[C@H]1c1ccc3c(Nc4nc(C5CC5)nc(N5CCS(=O)(=O)CC5)c4Cl)n[nH]c3c1)C(=O)N2 [Example 70, 4-[5-chloro-2-cyclopropyl-6-({6-[(1R,2S)-5′-methoxy-2′-oxo-1′,2′-dihydrospiro[cyclopropan-1,3′-indol]-2-yl]-1H-indazol-3-yl}amino)pyrimidin-4-y1]-1λ6-thiomorpholine-1,1-dione] | 1.1 nM | 80.3 nM | 1376.93 | 512.7157 |
| CCOc1cc(S(C)(=O)=O)cnc1Nc1n[nH]c2cc([C@@H]3C[C@@]34C(=O)Nc3ccc(OC)cc34)ccc12 [Example 208, (1R,2S)-2-(3-{[3-ethoxy-5-(methanesulfonyl)pyridin-2-yl]amino}-1H-indazol-6-yl)-5′-methoxyspiro[cyclopropano-1,3′-indol]-2′(1′H)-one] | 0.897 nM | 402 nM | 7904 | 2471 |
